From patent US12570618B2, “Compound, production method therefor, and pharmaceutical composition” (TOKYO UNIVERSITY OF SCIENCE FOUNDATION, priority 2021, dated 2026) come the findings set out here.

Experiment [1] relates to Hs925t (Skin cancer cell line). Nature of the experiment: cell proliferation inhibitory activity, WST-8 (Test Example 2). The format is cell-based. The note with it: Homo sapiens, 48 h, 2 days with compound. The text has this:
(§1) Compounds RS1 to RS7 obtained in Synthesis Examples 1 to 7, and M-COPA synthesized in the same manner as in Synthesis Example 1 in Patent Document 1 were examined for cell proliferation inhibitory activity against human cultured cancer cells. The cancer cells used were eight human cancer cell lines (one skin cancer cell line, one ovarian cancer cell line, one prostate cancer cell line, two lung adenocarcinoma cell lines, one colorectal cancer cell line, two breast adenocarcinoma cell lines). The cancer cells of each type were seeded on a 96-well plate and cultured for 2 days, and cultured for 2 days with addition of serially diluted products of the compounds, and the cell proliferation was then measured by colorimetry with a water-soluble tetrazolium salt (WST-8). Thereafter, 50% cell proliferation inhibitory concentrations (GI50) were calculated from the cell proliferation curves.

Experiment [2] deals with H2228 (Lung adenocarcinoma cell line). Described as above. The format is cell-based. The note with it: Homo sapiens, NCI-H2228, 48 h; H2228, 2 days with compound, WST-8, Table 2.
Source text: as §1
A general note: Tetrazolium assays rely on reduction of a dye to a coloured formazan, in cell work by metabolically active cells.

For experiment [3], the system named is Hs578t (Breast adenocarcinoma cell line). Described as above. The format is cell-based. The note with it: Homo sapiens, Hs-578T, 48 h, 2 days with compound.
Source text: as §1

The subject of experiment [4] is DLD-1 (Colorectal cancer cell line). Described as above. The format is cell-based. The note with it: Homo sapiens, 48 h, DLD-1, 2 days with compound.
Source text: as §1

For experiment [5], the system named is MCF-7 (Breast adenocarcinoma cell line). The description is as above. The format is cell-based. The note with it: Homo sapiens, MCF7, 48 h, MCF-7, 2 days with compound.
Source text: as §1

For experiment [6], the system named is SK-OV3 (Ovarian cancer cell line). The description is as above. In kind it is cell-based. The note with it: Homo sapiens, SK-OV-3, 48 h, SK-OV3, 2 days with compound.
Source text: as §1

Experiment [7] relates to DU-145 (Prostate cancer cell line). The description is as above. In kind it is cell-based. The note with it: Homo sapiens, 48 h, DU-145, 2 days with compound.
Source text: as §1

The subject of experiment [8] is H1650 (Lung adenocarcinoma cell line). The experiment is described as above. The format is cell-based. The note with it: Homo sapiens, NCI-H1650, 48 h; H1650, 2 days with compound, WST-8, Table 2.
Source text: as §1

Another experiment relates to HMC-1.2 cells. Nature of the experiment: cell proliferation inhibitory activity, ATP production (Test Example 1). In kind it is cell-based, human. The note with it: for IC50: Homo sapiens, 48 h, HMC-1.2 cells (KIT^V560G/D816V, imatinib-resistant), cultured 2 days with compound, ATP production, n=3; for inhibition of cell proliferation (in words): HMC-1.2 cells, FIG. 3. The text has this: (§2) Compounds RS1, RS2, and RS5 obtained in Synthesis Examples 1, 2, and 5, and M-COPA synthesized in the same manner as in Synthesis Example 1 in Patent Document 1 were examined for cell proliferation inhibitory activity against human cultured cancer cells with KIT tyrosine kinase mutation. The human cultured cancer cells used were GIST-T1 cells (KIT^Δ560-578. imatinib-sensitive) and GIST-R9 cells (KIV^Δ560-578/D820V, imatinib-resistant) as gastrointestinal stromal tumor cell lines, and HMC-1.2 cells (KIT^V560G/D816V, imatinib-resistant) as a mast cell leukemia cell line. The cancer cells of each type were seeded on a 96-well plate and cultured overnight, and cultured for 2 days with addition of serially diluted products of the compounds, and the cell proliferation was then measured by quantifying the ATP production (n=3). FIG. 1 to FIG. 3 show the cell proliferation curves for the GIST-T1 cells, GIST-R9 cells, and HMC-1.2 cells.

A further experiment has as its system GIST-T1 cells. Described as above. In kind it is cell-based, human. The note with it: for IC50: Homo sapiens, GISTT1, 48 h, GIST-T1 cells (KIT^Δ560-578, imatinib-sensitive), cultured 2 days with compound, ATP production, n=3; for inhibition of cell proliferation (in words): GIST-T1 cells, FIG. 1.
Source text: as §2

A further experiment concerns GIST-R9 cells. The description is as above. The note with it: for IC50: Homo sapiens, 48 h, GIST-R9 cells (KIV^Δ560-578/D820V, imatinib-resistant), cultured 2 days with compound, ATP production, n=3; for inhibition of cell proliferation (in words): GIST-R9 cells, FIG. 2. The format is cell-based, human.
Source text: as §2

One may read the GI50 as the concentration giving 50% growth inhibition. A word on the IC50: it is the concentration that inhibits the measured activity by half. For the compound `C/C(=C\C=C\[C@@H]1[C@H]2[C@H](C)[C@@H](O)[C@H](C)C[C@@H]2C=C[C@@H]1C)C(=O)NCc1cccnc1` [M-COPA, 2-methylcoprophilinamide, reference compound], the GI50 in experiment [1] is 50 nM; in [2] it was 40 nM; in experiment [3] it was 40 nM; in experiment [4] it was 30 nM; in experiment [5], 350 nM; in experiment [6] it was 30 nM. Also, the GI50 in experiment [7] was 100 nM; in experiment [8], 80 nM. The IC50 was 86 ± 9 nM in the experiment on HMC-1.2 cells, 347 ± 21 nM with GIST-T1 cells and 528 ± 59 nM with GIST-R9 cells.

For the compound `C[C@@H]1[C@@H](O)[C@H](C)C[C@@H]2C=C[C@H](C)[C@H](/C=C/C=C(\Br)C(=O)NCc3cnco3)[C@@H]12` [RS1, (2Z,4E)-2-Bromo-5-((1′S,2′S,4′aR,6′R,7′S,8′S,8′aS)-7′-hydroxy-2′,6′,8′-trimethyl-1′,2′,4′a,5′,6′,7′,8′,8′a-octahydronaphthalen-1′-yl)-N-(oxazol-5″-ylmethyl)penta-2,4-dienamide], the GI50 is 1 nM in [1]; 10 nM in [2]; 3 nM in experiment [3]; 3 nM in experiment [4]; 30 nM in experiment [5]; 5 nM in experiment [6]. For the same compound, the GI50 was determined as 40 nM in experiment [7] and 5 nM in [8]. In addition, the “inhibition of cell proliferation (in words)” value (“inhibition” below) with HMC-1.2 cells, with GIST-T1 cells and with GIST-R9 cells was “in a concentration-dependent manner” each time. For the same compound, the IC50 with HMC-1.2 cells was 50 nM; in the experiment on GIST-T1 cells it was 268 nM; in the experiment on GIST-R9 cells it was 363 nM.

For the compound `C[C@@H]1[C@@H](O)[C@H](C)C[C@@H]2C=C[C@H](C)[C@H](/C=C/C=C(\Br)C(=O)NCc3cncs3)[C@@H]12` [RS2, (2Z,4E)-2-Bromo-5-((1′S,2′S,4′aR,6′R,7′S,8′S,8′aS)-7′-hydroxy-2′,6′,8′-trimethyl-1′,2′,4′a,5′,6′,7′,8′,8′a-octahydronaphthalen-1′-yl)-N-(thiazol-5″-ylmethyl)penta-2,4-dienamide], the 50% growth inhibitory concentration (GI50) turned out to be 0.3 nM in experiment [1]; 40 nM in [2]; 30 nM in experiment [3]; 1 nM in experiment [4]; 30 nM in experiment [5]; 3 nM in experiment [6]. In addition, the values for the 50% growth inhibitory concentration (GI50) in experiment [7] and in experiment [8] were 10 nM and 30 nM, respectively. In addition, the “inhibition” value in the experiment with HMC-1.2 cells, with GIST-T1 cells and with GIST-R9 cells was “in a concentration-dependent manner” in each case. Besides, the IC50 in the experiment with HMC-1.2 cells worked out at 37 nM; in the experiment with GIST-T1 cells, 128 nM; in the experiment with GIST-R9 cells it was 169 nM.

On to `C[C@@H]1[C@@H](O)[C@H](C)C[C@@H]2C=C[C@H](C)[C@H](/C=C/C=C(\Br)C(=O)NCc3cocn3)[C@@H]12` [RS3, (2Z,4E)-2-Bromo-5-((1′S,2′S,4′aR,6′R,7′S,8′S,8′aS)-7′-hydroxy-2′,6′,8′-trimethyl-1′,2′,4′a,5′,6′,7′,8′,8′a-octahydronaphthalen-1′-yl)-N-(oxazol-4″-ylmethyl)penta-2,4-dienamide], for which the GI50 is 30 nM in [1]; 50 nM in [2]; 3 nM in experiment [3]; 30 nM in experiment [4]; 300 nM in [5]; 30 nM in experiment [6]. Besides, the GI50 stood at 200 nM in experiment [7] and 80 nM in experiment [8].

`C[C@@H]1[C@@H](O)[C@H](C)C[C@@H]2C=C[C@H](C)[C@H](/C=C/C=C(\Br)C(=O)NCc3nccs3)[C@@H]12` [RS4, (2Z,4E)-2-Bromo-5-((1′S,2′S,4′aR,6′R,7′S,8′S,8′aS)-7′-hydroxy-2′,6′,8′-trimethyl-1′,2′,4′a,5′,6′,7′,8′,8′a-octahydronaphthalen-1′-yl)-N-(thiazol-2″-ylmethyl)penta-2,4-dienamide]: the GI50 in [1] came to 10 nM; in experiment [2], 70 nM; in experiment [3] it was 30 nM; in experiment [4] it was 40 nM; in experiment [5], 500 nM; in experiment [6] it was 40 nM. In addition, the GI50 in [7] amounted to 300 nM; in experiment [8], 70 nM.

For the compound `C[C@@H]1[C@@H](O)[C@H](C)C[C@@H]2C=C[C@H](C)[C@H](/C=C/C=C(\Br)C(=O)NCc3cccnc3)[C@@H]12` [RS5, (2Z,4E)-2-Bromo-5-((1′S,2′S,4′aR,6′R,7′S,8′S,8′aS)-7′-hydroxy-2′,6′,8′-trimethyl-1′,2′,4′a,5′,6′,7′,8′,8′a-octahydronaphthalen-1′-yl)-N-(pyridin-3″-ylmethyl)penta-2,4-dienamide], the GI50 in experiment [1] came out at 0.1 nM; in experiment [2], 30 nM; in [3], 30 nM; in experiment [4], 0.3 nM; in experiment [5] it was 80 nM; in [6] it was 1 nM. The GI50 is 10 nM in [7] and 50 nM in experiment [8]. Further, the “inhibition” value in the experiment with HMC-1.2 cells, with GIST-T1 cells and in the experiment on GIST-R9 cells was “in a concentration-dependent manner” each time. Besides, the IC50 in the experiment on HMC-1.2 cells was 42 nM; in the experiment with GIST-T1 cells, 169 nM; in the experiment with GIST-R9 cells, 292 nM.

Take `C[C@H]1[C@@H]2[C@@H](/C=C/C=C(\Br)C(=O)NCc3cncs3)[C@@H](C)C=C[C@H]2CC[C@@H]1O` [RS6, (2Z,4E)-2-Bromo-5-((1′S,2′S,4′aR,7′S,8′S,8′aS)-7′-hydroxy-2′,8′-dimethyl-1′,2′,4′a,5′,6′,7′,8′,8′a-octahydronaphthalen-1′-yl)-N-(thiazol-5″-ylmethyl)penta-2,4-dienamide]: the GI50 in experiment [1] came out at 3 nM; in [2], 100 nM; in [3] it was 30 nM; in experiment [4] it was 40 nM; in experiment [5], 100 nM; in [6], 5 nM. Further, the GI50 in [7] amounted to 50 nM; in experiment [8], 100 nM.

Regarding `C[C@H]1[C@@H]2[C@@H](/C=C/C=C(\Br)C(=O)NCc3cccnc3)[C@@H](C)C=C[C@H]2CC[C@@H]1O` [RS7, (2Z,4E)-2-Bromo-5-((1′S,2′S,4′aR,7′S,8′S,8′aS)-7′-hydroxy-2′,8′-dimethyl-1′,2′,4′a,5′,6′,7′,8′,8′a-octahydronaphthalen-1′-yl)-N-(pyridin-3″-ylmethyl)penta-2,4-dienamide], the GI50 in experiment [1] amounted to 30 nM; in [2], 1000 nM; in experiment [3], 10 nM; in [4] it was 30 nM; in experiment [5], 1000 nM; in experiment [6], 50 nM. Besides, the GI50 in experiment [7] turned out to be 300 nM; in experiment [8], 100 nM.
